The subject of data set [1] is HCV replicon gt2a_JFH. Description: Cell-based HCV replicon assay (TaqMan), genotype 2a (JFH). Conditions: Hepatitis C virus, 72 h, replicon 2a (JFH); replicon RNA by TaqMan, day 3. Put shortly: (§1)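 Replicon cells seeded at 5000 cells/well with compound (10 serial 2-fold dilutions from 250 μM to 1 μM top dose; 0.5% DMSO, 5% FBS) and lysed on day 3. Replicon RNA quantified by multiplex TaqMan RT-PCR (NS5B amplicon, GAPDH control); ΔCT versus concentration fitted to sigmoid dose-response. Chimeras carry patient-isolate NS5A.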
(Replicon systems follow genome replication, usually without infectious particles.)

For data set [2], the system named is HCV chimeric replicon with NS5A of genotype 3a (NC00982). As to the kind of experiment: Cell-based HCV replicon assay (TaqMan), chimeric replicon genotype 3a (NC00982). Particulars: Hepatitis C virus, 72 h, read-out: HCV replicon EC50 3a (NC00982), chimeric replicon 3a (NC00982); replicon RNA by TaqMan, day 3. Put shortly: as §1
Data set [3] can be described thus: Pharmacokinetic analysis in rats. Particulars: Rat, dihydrochloride salt, 5 mpk/PO, 2.5 mpk/IV. In kind it is in vivo, Male Sprague-Dawley rats. As to the method: (§2) Various pharmacokinetic parameters for compound 56 were measured in rats, dogs and monkeys as described below.
Male Sprague-Dawley rats (Charles River, Co.) were pre-cannulated (femoral artery) in order to facilitate precise blood sampling times, to increase throughput and to reduce the stress on the animals caused by serial bleedings. Following an overnight fast, rats were dosed with the dihydrochloride salt of compound 56 orally at 5 mg/kg as a suspension in 0.4% hydroxylpropyl methylcellulose (HPMC) or intravenously at 2.5 mg/kg as a solution in 20% hydroxypropyl-β-cyclodextrin (20% HPβCD). Blood was collected into heparin-containing tubes serially from each animal at 0.25, 0.5, 1, 2, 4, 6, 8, 24 and 48 hr (PO), and 0.167, 0.25, 0.5, 1, 2, 4, 6, 8, 24 and 48 hr (IV) post-dosing and centrifuged to generate plasma. The plasma samples were stored at […] until analysis.
(§3) Collected plasma samples were analyzed for the presence of compound 56 using LC-MS/MS as described below.
(§4) The HPLC/API-MS/MS system for the example data consisted of a HPLC pumping system and a auto sampler with the sample tray refrigeration option connected directly to a triple quadrupole mass spectrometer with an API source. Typical HPLC methods for the example data was based on a fast gradient of two solvents: solvent A consisted of 0.1% formic acid in water, and solvent B consisted of 0.1% formic acid in acetonitrile. A fast linear gradient (start at 90% A for 0.2 min, ramp to 95% B from 0.2 to 0.5 min, hold at 95% B […], then ramp back to 90% A from 1.0 to 1.1 min, then hold at, […] from 1.1 to 1.2 min) was used. The flow rate for the HPLC system was set to 1 mL/min throughout the HPLC gradient; the HPLC column was a Halo C18 column (2.7 micron particle size, 50×2.1 mm). The example compounds were analyzed by positive ion atmospheric pressure chemical ionization tandem mass spectrometry (APCI-MS/MS). As a general procedure, selected reaction monitoring (SRM) methods were developed for each compound prior to analysis of the plasma samples. Normally, the individual SRM transitions were based on a fragmentation from the protonated molecule ([MH].) to a characteristic product ion.
(§5) Using the methods described above, the following pharmacokinetic parameters were calculated in rats, dogs and monkeys and the results are summarized in the table below.

A short description of data set [4]: Pharmacokinetic analysis in monkeys. In kind it is in vivo, male cynomolgus monkeys. Particulars: Monkey, dihydrochloride salt, 2 mpk/PO, 1 mpk/IV. As to the method: as §2
Following an overnight fast, male cynomolgus monkeys were dosed with the dihydrochloride salt of compound 56 orally at 2 mg/kg as a suspension in 0.4% hydroxylpropyl methylcellulose (HPMC) or intravenously at 1 mg/kg as a solution in 20% hydroxypropyl-β-cyclodextrin (20% HPβCD). For oral dosing, the animals dosed by oro-gastric intubation. Monkeys were fed approximately 1 hour before dosing and 4 hours after dosing. Blood samples were collected from the saphenous and/or cephalic vein at 0.25, 0.5, 1, 2, 4, 6, 8, 12, 24, 48, and 72 (PO), and 0.167, 0.25, 0.5, 1, 2, 4, 6, 8, 12, 24, 48, and 72 hrs (IV) post-dosing and centrifuged to generate plasma. The plasma samples were stored at […] until analysis.
as §3, §4, §5

Setting [5] is: dose-normalized AUC between PO and IV.

Broadly, the EC50 is the midpoint of the concentration-response curve.

Consider `COC(=O)N[C@H](C(=O)N1CC(F)(F)C[C@H]1c1ncc(-c2ccc(-c3ccc4c(ccc5nc([C@@H]6C[Si](C)(C)CN6C(=O)[C@@H](NC(=O)OC)C(C)C)[nH]c54)c3)cc2)[nH]1)C(C)C` [Compound 56], for which the half-maximal effective concentration (EC50) in data set [1] was 0.027 nM; in data set [2] it was 0.35 nM. For the same compound, the “Effective Half-Life” value stood at 7.6 h in data set [3] and 17 h in data set [4]. Also, the “Systemic Clearance” value was found to be 5.6 mL/min/kg in data set [3] and 1.2 mL/min/kg in data set [4]. For the same compound, the “Volume of Distribution” value is reported as 3.7 L/kg in data set [3] and 1.7 L/kg in data set [4]. Besides, the “Oral Bioavailability” value in data set [3] (setting [5]) is recorded as 28%; in data set [4] (setting [5]), 11.7%.

Source of the values: patent US8609635B2, “Fused tricyclic silyl compounds and methods of use thereof for the treatment of viral diseases” (priority 2010, dated 2013).
